Experimental data: patent US9522909B2, “Thiazolidinedione derivatives, preparation thereof and use thereof in cancer treatment” (UNIVERSITE DE LORRAINE, priority 2012, dated 2016)
Where a name gives a salt, the structure may show the parent alone.

Legend:
HepG2 = experiment: Antiproliferative activity (MTS) on HepG2; format: cell-based; conditions: Homo sapiens, 72 hours; for inhibition at 10 µM: 10^-5 M, triplicate, read-out: percentage of inhibition of cell growth, HepG2; for IC50: averages of two independent values
Protocol: (§1) Antiproliferative activity was measured for different compounds according to the invention by analysis of cytoxicity at 10^−5M on diverse cancer cell lines in DMSO in triplicate. For certain molecules and certain lines, the same procedure was used for determining the IC50 values (the required concentration in μM for inhibiting by half the proliferation of the cells), by conducting cytotoxicity tests at concentrations from 0.005 μM to 100 μM in duplicate. The procedure is the following. The cells of the relevant line are sown in the suitable medium (see Table III) added with L-glutamine, with 10% (v/v) of fetal calf serum, 100 IU of penicillin, 100 μg/mL of streptomycin and 1.5 μg/mL of fungizone and maintained under 5% of CO2 at 37° C. 96-well plates are sown with the required number of cells per well (see Table III) in 200 μL of medium. 24 hours later, the chemical compounds to be investigated, dissolved in DMSO, are added and the media are maintained for 72 hours under these conditions with a set final concentration in DMSO (1%). The controls received an equal volume of DMSO. The number of viable cells is measured at 490 nm with the MTS reagent (Promega, Madison Wis.). The IC50s are calculated as the concentrations of compounds inducing 50% inhibition of cell proliferation.
(§2) Tables IV and V below indicate the percentage of inhibition of cell growth, i.e. the percentage of dead cells after treatment with a compound dose of 10^−5 M. The tests were conducted in triplicate.

Mia-PaCa = experiment: Antiproliferative activity (MTS) on Mia-PaCa; format: cell-based; conditions: Homo sapiens, MIA PaCa-2, 72 hours; for inhibition at 10 µM: 10^-5 M, triplicate, read-out: percentage of inhibition of cell growth, Mia-PaCa; for IC50: averages of two independent values
Protocol: as §1, §2

MDA231 = experiment: Antiproliferative activity (MTS) on MDA231; format: cell-based, human; conditions: for inhibition at 10 µM / IC50: Homo sapiens, MDA-MB-231, 72 hours; for inhibition at 10 µM: 10^-5 M, triplicate, read-out: percentage of inhibition of cell growth, MDA231; for IC50: averages of two independent values
Protocol: as §1, §2

MCF7 = experiment: Antiproliferative activity (MTS) on MCF7; format: cell-based, human; conditions: for inhibition at 10 µM / IC50: Homo sapiens, MCF7, 72 hours; for inhibition at 10 µM: 10^-5 M, triplicate, read-out: percentage of inhibition of cell growth, MCF7; for IC50: averages of two independent values
Protocol: as §1, §2

HCT116 = experiment: Antiproliferative activity (MTS) on HCT116; format: cell-based; conditions: Homo sapiens, HCT-116; 10^-5 M, 72 hours, triplicate; read-out: percentage of inhibition of cell growth, HCT116
Protocol: as §1, §2

MDA435 = experiment: Antiproliferative activity (MTS) on MDA435; format: cell-based; conditions: Homo sapiens, 10^-5 M, 72 hours, triplicate, read-out: percentage of inhibition of cell growth, MDA435
Protocol: as §1, §2

PC3 = experiment: Antiproliferative activity (MTS) on PC3; format: cell-based; conditions: Homo sapiens, PC-3; 10^-5 M, 72 hours, triplicate; read-out: percentage of inhibition of cell growth, PC3
Protocol: as §1, §2

LNCaP = experiment: Antiproliferative activity (MTS) on LNCaP; format: cell-based; conditions: Homo sapiens, 72 hours; for inhibition at 10 µM: 10^-5 M, triplicate, read-out: percentage of inhibition of cell growth, LNCaP; for IC50: averages of two independent values
Protocol: as §1, §2

[1] = test system: cryopreserved human hepatocytes (primary culture); experiment: Hepatocyte viability (MTT test) on suspended cryopreserved human hepatocytes; format: cell-based; conditions: 90 minutes incubation, relative to non treated cells
Protocol: The hepatocyte viability corresponds to the percentage of surviving suspended human hepatocytes after 90 minutes of incubation with the compounds of the invention present at a concentration of […].
Hepatocyte viability was measured for different compounds according to the invention with cryopreserved human hepatocytes (primary culture) suspended and distributed in 96-well plates with a density of 0.1×10^6 cells per well, in a […] culture medium per well (DMEM+gentamycin (50 mg/L)+insulin (4 mg/L)+dexamethasone (1 μM)) in a CO2/air (5%/95%) humidified atmosphere at 37° C. After 30 minutes for attaining equilibrium, […] of culture medium containing the tested compounds (dissolved in DMSO) or of medium only containing DMSO (final concentration of 0.1%) were added with stirring at 900 rpm.
Cytotoxicity is evaluated with an MTT (Thiazolyl Blue Tetrazolium Bromide) test. The tested compounds or the DMSO are left to incubate for 90 minutes, and then 10 μL of MTT at 10 mg/10 mL are added per well for 30 mins. Next, the plates are centrifuged for 10 minutes at 2,000 g, the MTT is removed and some DMSO is added in an amount of 100 μL per well. The plates are gently shaked and then absorbance is measured at 595 nm by means of a spectrophotometric reader of micro-plates. The hepatocyte viability measured here corresponds to the percentage of surviving hepatocytes after 90 minutes of incubation with the compounds tested at a concentration of 100 μM, relatively to non treated cells.
The same tests were conducted for a concentration of compounds at 200 μM.
The tests were conducted in two distinct campaigns. In both cases, troglitazone (K) was used as a reference molecule.

| IC50 (HepG2) | IC50 (Mia-PaCa) | IC50 (MCF7) | IC50 (LNCaP) | Compound | inhibition at 10 µM (HepG2) | inhibition at 10 µM (Mia-PaCa) | inhibition at 10 µM (MDA231) | inhibition at 10 µM (MCF7) | inhibition at 10 µM (HCT116) | inhibition at 10 µM (MDA435) | inhibition at 10 µM (PC3) | inhibition at 10 µM (LNCaP) | Hepatocyte viability % (100 μM) ([1]; Table I campaign) | Hepatocyte viability % (200 μM) ([1]; Table I campaign) | IC50 (MDA231) | Hepatocyte viability % (100 μM) ([1]; Table II campaign) | Hepatocyte viability % (200 μM) ([1]; Table II campaign) | activity on non-hormono-dependent breast cancer cells (MDA-231), in words (MDA231) | activity on hormono-dependent breast cancer cells (MCF-7), in words (MCF7) |
| --- | --- | --- | --- | --- | --- | --- | --- | --- | --- | --- | --- | --- | --- | --- | --- | --- | --- | --- | --- |
|  |  |  |  | CCN(CC)c1ccc2c(-c3ccc(NC(=S)NCCCCCCc4c(C)c(C)c5c(c4C)CCC(C)(COc4ccc(/C=C6\SC(=O)NC6=O)cc4)O5)cc3C(=O)O)c3ccc(=[N+](CC)CC)cc-3oc2c1 (racemic) [Compound Q, (±) (9-{2-carboxy-4-[3-(6-{2-[4-(2,4-dioxo-thiazolidin-5-ylidenemethyl)-phenoxy-methyl]-2,5,7,8-tetramethyl-chroman-6-yl}-hexyl)-thioureido]-phenyl}-6-diethylamino-xanthen-3-ylidene)-diethyl-ammonium] | 75% | 70% | 71% | 59% | 80% | 59% | 60% | 67% |  |  |  |  |  |  |  |
| 10.1 µM | 4.8 µM | 5.2 µM | 19.4 µM | O=C1S/C(=C\c2ccc(O)cc2)C(=O)N1C/C=C/c1ccccc1 [Compound A, 5-(4-hydroxy-benzylidene)-3-(3-phenyl-allyl)-thiazolidine-2,4-dione] | 59% | 84% | 91% | 65% | 83% | 82% | 43% | 37% | 89% | 63% | 2.2 µM |  |  |  |  |
| 2.4 µM | 8.8 µM | 9.6 µM | 6.4 µM | Cc1c(C)c2c(c(C)c1CCCCCCNC(=O)OC(C)(C)C)CCC(C)(COc1ccc(/C=C3\SC(=O)NC3=O)cc1)O2 (racemic) [C, (±) Tert-butyl(6-{2-[4-(2,4-dioxo-thiazolidin-5-ylidenemethyl)-phenoxymethyl]-2,5,7,8-tetramethyl-chroman-6-yl}-hexyl)-carbamate] | 77% | 30% | 51% | 24% | 55% | 39% | 26% | 68% | 85% | 80% | 2.1 µM |  |  |  |  |
| 20.4 µM | 24.5 µM | 52.6 µM | 17.4 µM | Cc1c(C)c2c(c(C)c1O)CCC(C)(COc1ccc(/C=C3\SC(=O)N(C)C3=O)cc1)O2 (racemic) [J, (±) 5-[4-(6-Hydroxy-2,5,7,8-tetramethyl-chroman-2-ylmethoxy)-benzylidene]-3-methyl-thiazolidine-2,4-dione] | 40% | 20% | 36% | 0% | 32% | 5% | 14% | 33% |  |  | 4.9 µM | 120% | 120% | active | inactive |
| 5.7 µM | 1.3 µM | 3.4 µM | 6.1 µM | Cc1c(C)c2c(c(C)c1O)CCC(C)(CN1C(=O)S/C(=C\c3ccc(O)cc3)C1=O)O2 (racemic) [H, (±) 5-(4-hydroxy-benzylidene)-3-(6-hydroxy-2,5,7,8-tetramethyl-chroman-2-ylmethyl)-thiazolidine-2,4-dione] | 79% | 102% | 95% | 95% | 95% | 87% | 64% | 51% |  |  | 1.9 µM | 110% | 103% |  |  |
|  |  |  |  | Cc1c(C)c2c(c(C)c1O)CCC(C)(COc1ccc(CC3SC(=O)NC3=O)cc1)O2 (stereo not drawn) [K, troglitazone, reference compound] | 14% | 2% | 12% | 3% | 9% | 12% | 14% | 17% | 79% | 30% |  | 52% | 22% |  |  |
| 8.8 µM | 8.1 µM | 9.3 µM | 1.8 µM | CC1(CN2C(=O)S/C(=C\c3cc(Br)c(O)c(Br)c3)C2=O)CCCCC1 [L, reference compound] | 74% | 65% | 53% | 76% | 87% | 69% | 47% | 81% | 42% | 30% | 5.7 µM |  |  |  |  |
| 1 µM | 0.6 µM | 0.9 µM | 1 µM | Cc1c(C)c2c(c(C)c1OC(=O)CCCCCCCN)CCC(C)(COc1ccc(/C=C3\SC(=O)N(C)C3=O)cc1)O2 (racemic) [Compound B, (±) 8-amino {2,5,7,8-tetramethyl-2-[4-(3-methyl-2,4-dioxo-thiazolidin-5-ylidenemethyl)-phenoxymethyl]-chroman-6-yl}octanoate trifluoroacetate] | 92% | 101% | 101% | 101% | 99% | 100% | 98% | 91% |  |  | 0.2 µM |  |  |  |  |
|  |  |  |  | Cc1c(C)c2c(c(C)c1OC(=O)OC(C)(C)C)CCC(C)(COc1ccc(C=C3SC(=O)N(C)C3=O)cc1)O2 (racemic) [F, (±) tertiobutyl(2,5,7,8-tetramethyl-2-[4-(3-methyl-2,4-dioxo-thiazolidin-5-ylidenemethyl)-phenoxymethyl]-chroman-6-yl)carbonate] |  |  |  |  |  |  |  |  |  |  |  | 81% | 66% |  |  |
|  |  |  |  | Cc1c(C)c2c(c(C)c1O)CCC(C)(COc1ccc(/C=C3\SC(=O)N(Cc4ccccc4)C3=O)cc1)O2 (stereo not drawn) [G] |  |  |  |  |  |  |  |  |  |  |  | 87% | 63% |  |  |
